# System: retinal degeneration induced by transient retinal ischemia
# Assay: Suppressing effect on retinal degeneration in transient retinal ischemia
# Assay type: in vivo, Wister male rats
# Details: rat, 3 mg/kg into the caudal vein immediately before and after ocular hypertension treatment (IOP 130 mmHg, 50 minutes); 7 days after treatment; p<0.01 relative to control
# Protocol: Wister male rats (body weight of about 200 g) were used. Each animal was subjected to sufficient warming treatment by using a thermal plate under anesthesia, and the head was fixed by using a stereotaxic apparatus. In order to induce transient retinal ischemia, IOP was maintained at 130 mmHg for 50 minutes by injecting intraocular irrigating solution into the anterior chamber via the cornea using an infusion tube and 30 G injection needle which were connected to a bottle held at 174 cm above the eyes (ocular hypertension treatment) according to the method of Akaike (Folia Pharmacologica Japonica, 111, pp. 97-104 (1998)). The ocular hypertension treatment was performed only on the right eye, and the left eye was left untreated. Immediately before and after the ocular hypertension treatment, a physiological saline solution or a dose of 3 mg/kg of MCI-186 was injected to the caudal vein. […] That is, a light-microscopic section of the retina was prepared 7 days after the ocular hypertension treatment, and the thickness of the retina was measured under microscope by using a micrometer (thickness from inner plexiform layer to inner nuclear layer). […] 7 days after the ocular hypertension treatment. Data represent means±SEM. As for the number of animals, the control group consisted of 10 rats, and the MCI-186 group consisted of 11 rats. […]
compound,measurement,value
"CC1=NN(c2ccccc2)C(=O)C1 [MCI-186, 3-methyl-1-phenyl-2-pyrazolin-5-one]","retinal degeneration induced by transient retinal ischemia (retinal thickness ratio, ocular hypertension treated eye/normal eye)",significantly suppressed

# Source: patent US7638516B2, “Agent for therapeutic treatment of optic nerve diseases and the like” (Mei Co., Ltd., priority 2000, dated 2009)
